ChEMBL document CHEMBL4118137, “Design, synthesis and antineoplastic activity of novel hybrids of podophyllotoxin and indirubin against human leukaemia cancer cells as multifunctional anti-MDR agents” (Bioorg Med Chem Lett, 2018)
Activity calls are given as the source filed them. The rule behind the calls is not given here.

Legend:
K562/VCR [1] = assay: Antiproliferative activity against human K562/VCR cells after 72 hrs by CCK8 assay; assay type: functional, cell-based
K562 = assay: Antiproliferative activity against human K562 cells after 72 hrs by CCK8 assay; assay type: functional, cell-based; conditions: K562, 72 h
[2] = Resistance factor, ratio of IC50 for human K562/VCR cells to IC50 for human K562 cells; assay type: functional
K562/VCR [3] = assay: Cell cycle arrest in human K562/VCR cells assessed as accumulation at G1 phase at 0.05 uM after 48 hrs by propidium iodide staining-based flow cytometric method (reference value: 46.20%); assay type: functional
K562/VCR [4] = assay: Cell cycle arrest in human K562/VCR cells assessed as accumulation at S phase at 0.05 uM after 48 hrs by propidium iodide staining-based flow cytometric method (reference value: 46.02%); assay type: functional
K562/VCR [5] = assay: Cell cycle arrest in human K562/VCR cells assessed as accumulation at G2 phase at 0.05 uM after 48 hrs by propidium iodide staining-based flow cytometric method (reference value: 7.78%); assay type: functional
K562/VCR [6] = assay: Induction of apoptosis in human K562/VCR cells assessed as early apoptotic cells at 0.05 uM after 48 hrs by annexin-V-FITC/propidium iodide staining-based flow cytometric method (reference value: 6.90%); assay type: functional
K562/VCR [7] = assay: Induction of apoptosis in human K562/VCR cells assessed as late apoptotic cells at 0.05 uM after 48 hrs by annexin-V-FITC/propidium iodide staining-based flow cytometric method (reference value: 1.90%); assay type: functional
K562/VCR [8] = assay: Induction of apoptosis in human K562/VCR cells assessed as necrotic cells at 0.05 uM after 48 hrs by annexin-V-FITC/propidium iodide staining-based flow cytometric method (reference value: 0.15%); assay type: functional
K562/VCR [9] = assay: Induction of apoptosis in human K562/VCR cells assessed as viable cells at 0.05 uM after 48 hrs by annexin-V-FITC/propidium iodide staining-based flow cytometric method (reference value: 91.05%); assay type: functional; conditions: read-out: Activity
K562/VCR [10] = assay: Reduction in mitochondrial membrane potential in human K562/VCR cells at 0.1 uM after 48 hrs by JC1 probe-based flow cytometric method (reference value: 2.65%); assay type: functional; set-up: scale not given: the % may be the effect or the level left
Homo sapiens [11] = species on record: Homo sapiens; assay: Inhibition of alpha-tubulin polymerization in human K562/VCR cells assessed as disruption of microtubule organization at 0.05 uM after 24 hrs by DAPI staining-based immunofluorescence assay; assay type: cell-based
K562/VCR [12] = assay: Induction of reactive oxygen species formation in human K562/VCR cells at 0.05 uM after 24 hrs by DCFH-DA staining-based flow cytometric method (reference value: 0.41%); assay type: functional
[13] = target: T1, c-Jun N-terminal kinase, JNK (Homo sapiens) (UniProt P45983+P53779+P45984); assay: Induction of JNK phosphorylation in human K562/VCR cells at 0.05 uM after 48 hrs by Western blot method relative to beta-actin; assay type: cell-based
[14] = target: RAC-alpha serine/threonine-protein kinase (Homo sapiens) (UniProt P31749); assay: Inhibition of AKT phosphorylation in human K562/VCR cells at 0.05 uM after 48 hrs by Western blot method relative to beta-actin; assay type: cell-based
RAC-alpha serine/threonine-protein kinase (Homo sapiens), sequence (P31749 whole entry): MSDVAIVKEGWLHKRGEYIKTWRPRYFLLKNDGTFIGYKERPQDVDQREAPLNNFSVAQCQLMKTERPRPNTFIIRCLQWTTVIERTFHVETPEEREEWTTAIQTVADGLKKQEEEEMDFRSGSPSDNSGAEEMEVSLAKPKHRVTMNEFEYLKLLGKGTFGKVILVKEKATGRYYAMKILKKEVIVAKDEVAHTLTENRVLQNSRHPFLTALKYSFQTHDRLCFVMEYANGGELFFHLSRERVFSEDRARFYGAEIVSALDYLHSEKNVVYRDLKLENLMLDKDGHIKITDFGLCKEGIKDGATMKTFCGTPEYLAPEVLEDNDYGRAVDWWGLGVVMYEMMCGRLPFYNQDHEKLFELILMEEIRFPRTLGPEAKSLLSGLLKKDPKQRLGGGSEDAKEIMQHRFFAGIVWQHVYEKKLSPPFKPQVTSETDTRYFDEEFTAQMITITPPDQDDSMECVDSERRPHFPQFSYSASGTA

K562/VCR [15] = assay: Induction of apoptosis in human K562/VCR cells assessed as downregulation of CDK1 expression at 0.05 uM after 48 hrs by Western blot method relative to beta-actin; assay type: functional
K562/VCR [16] = assay: Induction of apoptosis in human K562/VCR cells assessed as downregulation of CDK2 expression at 0.05 uM after 48 hrs by Western blot method relative to beta-actin; assay type: functional
K562/VCR [17] = assay: Induction of apoptosis in human K562/VCR cells assessed as upregulation of cleaved PARP expression at 0.05 uM after 48 hrs by Western blot method relative to beta-actin; assay type: functional
K562/VCR [18] = assay: Downregulation of P-gp expression in human K562/VCR cells at 0.05 uM after 48 hrs by Western blot method relative to beta-actin; assay type: functional
K562/VCR [19] = assay: Downregulation of MRP-1 expression in human K562/VCR cells at 0.05 uM after 48 hrs by Western blot method relative to beta-actin; assay type: functional
K562/VCR [20] = assay: Induction of autophagy in human K562/VCR cells assessed as upregulation of beclin-1 expression at 0.05 uM after 48 hrs by Western blot method relative to beta-actin; assay type: functional
K562/VCR [21] = assay: Induction of autophagy in human K562/VCR cells assessed as upregulation of LC3-2 expression at 0.05 uM after 48 hrs by Western blot method relative to beta-actin; assay type: functional
HL-60 = assay: Cytotoxicity against human HL60 cells; assay type: functional, cell-based
K562/VCR [22] = assay: Cell cycle arrest in human K562/VCR cells assessed as accumulation at G1 phase at 0.1 uM after 48 hrs by propidium iodide staining-based flow cytometric method (reference value: 46.20%); assay type: functional
K562/VCR [23] = assay: Cell cycle arrest in human K562/VCR cells assessed as accumulation at S phase at 0.1 uM after 48 hrs by propidium iodide staining-based flow cytometric method (reference value: 46.02%); assay type: functional
K562/VCR [24] = assay: Cell cycle arrest in human K562/VCR cells assessed as accumulation at G2 phase at 0.1 uM after 48 hrs by propidium iodide staining-based flow cytometric method (reference value: 7.78%); assay type: functional
K562/VCR [25] = assay: Induction of apoptosis in human K562/VCR cells assessed as early apoptotic cells at 0.1 uM after 48 hrs by annexin-V-FITC/propidium iodide staining-based flow cytometric method (reference value: 6.90%); assay type: functional
K562/VCR [26] = assay: Induction of apoptosis in human K562/VCR cells assessed as late apoptotic cells at 0.1 uM after 48 hrs by annexin-V-FITC/propidium iodide staining-based flow cytometric method (reference value: 1.90%); assay type: functional
K562/VCR [27] = assay: Induction of apoptosis in human K562/VCR cells assessed as necrotic cells at 0.1 uM after 48 hrs by annexin-V-FITC/propidium iodide staining-based flow cytometric method (reference value: 0.15%); assay type: functional
K562/VCR [28] = assay: Induction of apoptosis in human K562/VCR cells assessed as viable cells at 0.1 uM after 48 hrs by annexin-V-FITC/propidium iodide staining-based flow cytometric method (reference value: 91.05%); assay type: functional; conditions: read-out: Activity
K562/VCR [29] = assay: Reduction in mitochondrial membrane potential in human K562/VCR cells at 0.05 uM after 48 hrs by JC1 probe-based flow cytometric method (reference value: 2.65%); assay type: functional; set-up: scale not given: the % may be the effect or the level left
Homo sapiens [30] = species on record: Homo sapiens; assay: Inhibition of alpha-tubulin polymerization in human K562/VCR cells assessed as disruption of microtubule organization at 0.05 to 0.1 uM after 24 hrs by DAPI staining-based immunofluorescence assay; assay type: cell-based
K562/VCR [31] = assay: Induction of reactive oxygen species formation in human K562/VCR cells at 0.1 uM after 24 hrs by DCFH-DA staining-based flow cytometric method (reference value: 0.41%); assay type: functional
[32] = target: T1, c-Jun N-terminal kinase, JNK (Homo sapiens); assay: Induction of JNK phosphorylation in human K562/VCR cells at 0.1 uM after 48 hrs by Western blot method relative to beta-actin; assay type: cell-based
[33] = target: RAC-alpha serine/threonine-protein kinase (Homo sapiens) (UniProt P31749); assay: Inhibition of AKT phosphorylation in human K562/VCR cells at 0.1 uM after 48 hrs by Western blot method relative to beta-actin; assay type: cell-based
K562/VCR [34] = assay: Induction of apoptosis in human K562/VCR cells assessed as downregulation of CDK1 expression at 0.1 uM after 48 hrs by Western blot method relative to beta-actin; assay type: functional
K562/VCR [35] = assay: Induction of apoptosis in human K562/VCR cells assessed as downregulation of CDK2 expression at 0.1 uM after 48 hrs by Western blot method relative to beta-actin; assay type: functional
K562/VCR [36] = assay: Induction of apoptosis in human K562/VCR cells assessed as upregulation of cleaved PARP expression at 0.1 uM after 48 hrs by Western blot method relative to beta-actin; assay type: functional
K562/VCR [37] = assay: Downregulation of P-gp expression in human K562/VCR cells at 0.1 uM after 48 hrs by Western blot method relative to beta-actin; assay type: functional
K562/VCR [38] = assay: Downregulation of MRP-1 expression in human K562/VCR cells at 0.1 uM after 48 hrs by Western blot method relative to beta-actin; assay type: functional
K562/VCR [39] = assay: Induction of autophagy in human K562/VCR cells assessed as upregulation of beclin-1 expression at 0.1 uM after 48 hrs by Western blot method relative to beta-actin; assay type: functional
K562/VCR [40] = assay: Induction of autophagy in human K562/VCR cells assessed as upregulation of LC3-2 expression at 0.1 uM after 48 hrs by Western blot method relative to beta-actin; assay type: functional
K562/Adr = assay: Antiproliferative activity against human K562/ADR cells after 72 hrs by CCK8 assay; assay type: functional, cell-based

COc1cc([C@@H]2c3cc4c(cc3[C@H](O)[C@H]3COC(=O)[C@H]23)OCO4)cc(OC)c1OC [PODOFILOX]
IC50 (K562/VCR [1]): 50 nM
IC50 (K562): 25 nM
Ratio IC50 [2]: 2
Activity (K562/VCR [3]): 17.81%
Activity (K562/VCR [4]): 22.9%
Activity (K562/VCR [5]): 59.28%
Activity (K562/VCR [6]): 28.1%
Activity (K562/VCR [7]): 23.21%
Activity (K562/VCR [8]): 0.08%
viability at 0.05 µM (K562/VCR [9]): 48.6%
Activity (K562/VCR [10]): 52.5%
inhibition (Homo sapiens [11]): Active
Activity (K562/VCR [12]): 45.54%
fold change (FC) [13]: 1.04
fold change (FC) [14]: 0.33
fold change (FC) (K562/VCR [15]): 0.27
fold change (FC) (K562/VCR [16]): 0.37
fold change (FC) (K562/VCR [17]): 0.61
fold change (FC) (K562/VCR [18]): 0.27
fold change (FC) (K562/VCR [19]): 0.22
fold change (FC) (K562/VCR [20]): 0.78
fold change (FC) (K562/VCR [21]): 0.65

O=C1Nc2ccccc2/C1=C1/Nc2ccccc2C1=O [INDIRUBIN]
IC50 (K562/VCR [1]): > 100000 nM
IC50 (K562): > 100000 nM

CN(C)CCN1C(=O)/C(=C2\Nc3ccccc3C2=O)c2ccccc21
IC50 (HL-60): 3560 nM

COc1cc([C@@H]2c3cc4c(cc3[C@H](OC(=O)CN3C(=O)/C(=C5\Nc6ccccc6C5=O)c5ccccc53)[C@H]3COC(=O)[C@H]23)OCO4)cc(OC)c1OC
IC50 (K562/VCR [1]): 76 nM
IC50 (K562): 34 nM
Ratio IC50 [2]: 2.23
Activity (K562/VCR [3]): 23.26%
Activity (K562/VCR [4]): 29.81%
Activity (K562/VCR [5]): 46.93%
Activity (K562/VCR [22]): 17.33%
Activity (K562/VCR [23]): 25.7%
Activity (K562/VCR [24]): 56.97%
Activity (K562/VCR [6]): 13.48%
Activity (K562/VCR [7]): 9.61%
Activity (K562/VCR [8]): 0.07%
viability at 0.05 µM (K562/VCR [9]): 76.8%
Activity (K562/VCR [25]): 28.58%
Activity (K562/VCR [26]): 18.91%
Activity (K562/VCR [27]): 0.1%
viability at 0.1 µM (K562/VCR [28]): 52.4%
Activity (K562/VCR [10]): 40.38%
Activity (K562/VCR [29]): 19.44%
inhibition (Homo sapiens [30]): Active
Activity (K562/VCR [12]): 24.27%
Activity (K562/VCR [31]): 39.84%
fold change (FC) [13]: 0.7
fold change (FC) [32]: 0.84
fold change (FC) [14]: 0.6
fold change (FC) [33]: 0.43
fold change (FC) (K562/VCR [15]): 0.44
fold change (FC) (K562/VCR [34]): 0.32
fold change (FC) (K562/VCR [16]): 0.44
fold change (FC) (K562/VCR [35]): 0.36
fold change (FC) (K562/VCR [17]): 0.46
fold change (FC) (K562/VCR [36]): 0.56
fold change (FC) (K562/VCR [18]): 0.4
fold change (FC) (K562/VCR [37]): 0.33
fold change (FC) (K562/VCR [19]): 0.31
fold change (FC) (K562/VCR [38]): 0.24
fold change (FC) (K562/VCR [20]): 0.52
fold change (FC) (K562/VCR [39]): 0.6
fold change (FC) (K562/VCR [21]): 0.78
fold change (FC) (K562/VCR [40]): 0.63

COc1cc([C@@H]2c3cc4c(cc3[C@H](OC(=O)CN3C(=O)C(=O)c5c(Br)cccc53)[C@H]3COC(=O)[C@H]23)OCO4)cc(OC)c1OC
IC50 (K562/Adr): 67 nM
